Measured values reported in patent publication US4689331A, “Substituted 2-pyridinyl benzimidazoles, and their use for inhibiting gastric acid secretion” (priority 1984, dated 1987).

Assays:
gastric acid secretion = assay: Inhibiting effect in vivo on gastric acid secretion in conscious dog; conditions: conscious chronic gastric fistula dog, oral by stomach tube, histamine-induced secretion, 1 h after dosing, peak inhibitory effect
Method: II. Inhibiting effect in vivo on gastric acid secretion in conscious dog
Chronic gastric fistula dogs were used. These dogs have been surgically provided with a gastric cannula in the stomach and a duodenal fistula used for direct intraduodenal administration of test compounds. Following a 4 week's recovery period after surgery, tests were performed once a week on each dog. Food and water were withdrawn 18 hours before each test.
The test compound dissolved in 5% ethanol in 0.5% Methocel® (90 HG, 15.000, Dow Chem Corp.) was administered orally by using a stomach tube. After 1 hour gastric acid secretion was induced by continuous infusion of histamine at individual doses (400-600 nmol/kg, h), resulting in approx. 90% of maximal secretion of gastric acid. The gastric juice was collected by free flow from the gastric cannula in consecutive 30 minutes samples for 2 hours. The samples were titrated to pH 7.0 with 0.1M NaOH using a Radiometer automatic titrator and the acid output was calculated. The percent inhibition of acid secretion was calculated by comparing in each dog the acid output in the test to the acid output in control tests when only the vehicle was given. The peak inhibitory effect for each compound was determined.

[1] = system: ethanol-induced gastric lesions; assay: In vivo cytoprotective effect: effect on ethanol-induced gastric lesions in the rat; design: species or system rat (female Spraque-Dawley); conditions: oral, 30 min before 1 ml absolute ethanol, dose giving 50% reduction of total lesion length vs control (11.0 cm); for ED50: Rattus norvegicus, read-out: III Rat Cytoprot. ED50
Method: III. In vivo cytoprotective effect: Effect on ethanol-induced gastric lesions in the rat
Two groups of female Spraque-Dawley rats (190-220 g) were used, one for the test compound and one for the control experiment. Food, but not water, was removed 24 h before the experiments.
The animals in the test group were treated orally with the test compound dissolved in 10% ethanol in 0.5% Methocel® immediately before use and the animals in the control group were given the vehicle only in a dose of 2.5 ml/kg.
Thirty minutes later the rats were given orally 1 ml of absolute ethanol (a standard agent for inducing gastric mucosal lesions).
Sixty minutes later the rats were killed by carbon dioxide asphyxiation, their stomachs dissected out and the gastric mucosae were examined for the presence of necrotic lesions. The total lengths of the lesions in the stomachs were measured in the test group and in the control group, in both cases treated thirty minutes before with ethanol.
The ED50 -value represents the dose of the compound giving 50% reduction of the total lengths of lesions compared to the total lengths of lesions of the control experiment (11.0 cm).

gastric H^+,K^+ -ATPase = molecular target: T1, gastric H^+,K^+ -ATPase (Sus scrofa, UniProt P19156); assay: In vitro inhibition of gastric H+,K+-ATPase; assay type: biochemical; conditions: hog gastric membrane, pH 7.4, 30 min incubation, negative log of concentration (M) giving 50% inhibition
T1 construct: from tissue; host or cells: hog stomach, purified membrane fraction (GI fraction of Saccomani et al. 1977)
Method: I. In vitro inhibition of gastric H^+,K^+ -ATPase
Hog gastric H^+,K^+ -ATPase was purified according to Saccomani et al., Biochim. Biophys. Acta 465, 311-330, 1977. 10 μg of membrane protein (GI-fraction in the reference listed above) was incubated with 2 mmol/l of piperazine-N,N'bis-(2-ethane sulfonic acid) buffer pH 7.4 and the test compound in concentrations 10^-7 -10^-4 M in a final volume of 1 ml. (The test compound was dissolved in methanol. Aliquots of these stock solutions were diluted to a final methanol concentration below 1%, which on its own had no effect on the enzyme activities.) After 30 minutes of incubation, the remaining H^+,K^+ -ATPase activity was determined, according to Wallmark et al., Biochim. Biophys. Acta, 728, 31-38, 1983. A dose-response curve was constructed and the concentration at half-maximal inhibition (IC50) could be determined.
pIC50 is the negative logarithm of the concentration (in M) of the test compound giving 50% inhibition.

T1 sequence (P19156 2-1034 limits assumed): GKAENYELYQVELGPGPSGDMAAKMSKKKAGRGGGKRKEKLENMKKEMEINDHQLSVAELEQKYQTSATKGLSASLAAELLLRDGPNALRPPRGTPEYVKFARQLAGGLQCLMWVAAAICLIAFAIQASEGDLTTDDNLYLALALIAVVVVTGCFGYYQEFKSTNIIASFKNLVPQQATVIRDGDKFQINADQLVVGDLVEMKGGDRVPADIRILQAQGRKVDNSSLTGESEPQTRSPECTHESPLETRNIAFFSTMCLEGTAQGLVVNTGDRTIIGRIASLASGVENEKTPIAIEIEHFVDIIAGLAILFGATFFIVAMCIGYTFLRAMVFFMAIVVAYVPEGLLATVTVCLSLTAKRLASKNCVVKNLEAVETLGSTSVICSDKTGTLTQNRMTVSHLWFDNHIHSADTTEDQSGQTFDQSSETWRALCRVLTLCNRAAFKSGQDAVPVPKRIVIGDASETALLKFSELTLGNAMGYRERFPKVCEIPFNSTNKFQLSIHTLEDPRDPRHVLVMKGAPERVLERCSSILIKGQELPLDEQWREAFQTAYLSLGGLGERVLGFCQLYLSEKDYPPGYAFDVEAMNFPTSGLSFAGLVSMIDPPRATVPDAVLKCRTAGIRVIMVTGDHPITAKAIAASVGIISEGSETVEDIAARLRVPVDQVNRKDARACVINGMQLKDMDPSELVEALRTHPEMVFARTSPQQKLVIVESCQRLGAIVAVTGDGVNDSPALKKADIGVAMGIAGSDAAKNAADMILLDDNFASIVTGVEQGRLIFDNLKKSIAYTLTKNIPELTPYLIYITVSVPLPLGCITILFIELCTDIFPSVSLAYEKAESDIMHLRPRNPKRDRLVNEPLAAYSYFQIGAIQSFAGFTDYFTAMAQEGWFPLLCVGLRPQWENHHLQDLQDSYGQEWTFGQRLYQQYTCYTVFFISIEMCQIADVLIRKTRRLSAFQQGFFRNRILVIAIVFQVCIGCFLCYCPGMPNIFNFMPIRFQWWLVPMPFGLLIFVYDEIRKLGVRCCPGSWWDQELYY
T1 sequence (P18434 whole entry partner): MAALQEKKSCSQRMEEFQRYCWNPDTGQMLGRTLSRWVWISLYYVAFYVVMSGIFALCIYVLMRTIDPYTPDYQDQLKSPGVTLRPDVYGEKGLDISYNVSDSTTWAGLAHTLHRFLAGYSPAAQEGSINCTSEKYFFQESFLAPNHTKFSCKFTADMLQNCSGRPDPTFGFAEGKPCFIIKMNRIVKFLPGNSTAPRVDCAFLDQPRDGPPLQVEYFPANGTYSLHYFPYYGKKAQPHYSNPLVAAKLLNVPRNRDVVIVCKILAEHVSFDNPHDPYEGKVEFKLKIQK

SMILES	II Dog Gast. acid secr. inhib. ED50 (gastric acid secretion)	III Rat Cytoprot. ED50 [1]	I Enzyme pIC50 (gastric H^+,K^+ -ATPase)	ED50 [1]	IC50 (gastric H^+,K^+ -ATPase; read-out: I Enzyme pIC50 (converted))	ED50 (gastric acid secretion; Canis lupus familiaris, read-out: II Dog Gast. acid secr. inhib. ED50)
COc1ccc2[nH]c(-[n+]3cc(C)c(OC)c(C)c3CSSCCO)nc2c1.[O-][Cl+3]([O-])([O-])[O-] [Example 1, 3,5-dimethyl-4-methoxy-2-[(2-hydroxyethyl)dithiomethyl]-1-(5-methoxy-2-benzimidazolyl)-pyridiniumperchlorate]	6 µmol/kg	15 µmol/kg	5.0	–	–	–
COc1ccc2[n-]c(-[n+]3cc(C)c(OC)c(C)c3CSSCC(=O)O)nc2c1 [Example 7]	–	–	–	30 µmol/kg	3.16e-05 M	–
COc1c(C)c[n+](-c2nc3ccccc3[n-]2)c(CSC#N)c1C [Example 14]	–	–	–	20 µmol/kg	–	9 µmol/kg
